From patent US9708314B2, “Heterocyclic amide compound” (NISSAN CHEMICAL INDUSTRIES, LTD., priority 2013, dated 2017)

How the values were obtained:
Type in all cases: in vivo
[1] = test system: directly sowed Oryza sativa; experiment: Test Example 3: effect on crop by application to foliage (Wagner pot, water depth 0.1-0.5 cm); conditions: Nineteenth Table; application to foliage; application herbicide amount 320 g/ha
Outline: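 Alluvial soil in 1/10000 are Wagner pots, sown and grown 14 days in a 25–30 °C greenhouse. An emulsifiable concentrate diluted in water to the set dose (g/ha) was sprayed on stems and leaves. Effect scored three weeks later on a 0–5 scale: 5 = ≥90% herbicidal ratio, 0 = ≤5%.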

Amaranthus retroflexus = experiment: Test Example 4: herbicidal effect by application to foliage (diluvial soil, plastic box); conditions: for N (Amaranthus retroflexus) herbicidal effect grade: foliage application; for N: herbicidal effect on Amaranthus retroflexus: application to foliage, application herbicide amount 320 g/ha
Outline: (§1)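 Emulsion-formulated compound, diluted to a predetermined g/ha dose, applied by small sprayer to leaves and stems of 14-day-old seedlings grown in sterilized diluvial soil. Effect rated on 0–5 herbicidal-ratio scale three weeks on.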

Galium spurium = experiment: as above; conditions: for Q (Galium spurium) herbicidal effect grade: foliage application; for Q: herbicidal effect on Galium spurium: application to foliage, application herbicide amount 320 g/ha
Outline: as §1

Digitaria ciliaris = experiment: as above; conditions: for F (Digitaria ciliaris) herbicidal effect grade: foliage application; for F: herbicidal effect on Digitaria ciliaris: application to foliage, application herbicide amount 320 g/ha
Outline: as §1

[2] = test system: Echinochloa crus-galli var. crus-galli; experiment: as above; conditions: for H (Echinochloa crus-galli var. crus-galli) herbicidal effect grade: foliage application; for H: herbicidal effect on Echinochloa crus-galli var. crus-galli: application to foliage, application herbicide amount 320 g/ha
Outline: as §1

Veronica persica = experiment: as above; conditions: for R (Veronica persica) herbicidal effect grade: foliage application; for R: herbicidal effect on Veronica persica: application to foliage, application herbicide amount 320 g/ha
Outline: as §1

Apera spica-venti. = experiment: as above; conditions: for L (Apera spica-venti.) herbicidal effect grade: foliage application; for L: herbicidal effect on Apera spica-venti.: application to foliage, application herbicide amount 320 g/ha
Outline: as §1

Abutilon theophrasti = experiment: as above; conditions: for M (Abutilon theophrasti) herbicidal effect grade: foliage application; for M: herbicidal effect on Abutilon theophrasti: application to foliage, application herbicide amount 320 g/ha
Outline: as §1

Lolium multiflorum Lam. = experiment: as above; conditions: for K (Lolium multiflorum Lam.) herbicidal effect grade: foliage application; for K: herbicidal effect on Lolium multiflorum Lam.: application to foliage, application herbicide amount 320 g/ha
Outline: as §1

Alopecurus myosuroides = experiment: as above; conditions: for J (Alopecurus myosuroides) herbicidal effect grade: foliage application; for J: herbicidal effect on Alopecurus myosuroides: application to foliage, application herbicide amount 320 g/ha
Outline: as §1

Setaria viridis = experiment: as above; conditions: for G (Setaria viridis) herbicidal effect grade: foliage application; for G: herbicidal effect on Setaria viridis: application to foliage, application herbicide amount 320 g/ha
Outline: as §1

Stellaria media = experiment: as above; conditions: for P (Stellaria media) herbicidal effect grade: foliage application; for P: herbicidal effect on Stellaria media: application to foliage, application herbicide amount 320 g/ha
Outline: as §1

Avena fatua = experiment: as above; conditions: for I (Avena fatua) herbicidal effect grade: foliage application; for I: herbicidal effect on Avena fatua: application to foliage, application herbicide amount 320 g/ha
Outline: as §1

Chenopodium album = experiment: as above; conditions: for O (Chenopodium album) herbicidal effect grade: foliage application; for O: herbicidal effect on Chenopodium album: application to foliage, application herbicide amount 320 g/ha
Outline: as §1

[3] = Application herbicide amount 320 g/ha

SMILES: CC(C)N(C)c1nnc2c(C(=O)Nc3nnco3)ccc(C(F)(F)F)n12 [1-122]
- b (effect on crop grade) [1]: 3 (Herbicidal ratio of 40% or more and less than 70%)
- N (Amaranthus retroflexus) herbicidal effect grade (Amaranthus retroflexus; [3]): 5 (Herbicidal ratio of 90% or more (almost completely withered))
- Q (Galium spurium) herbicidal effect grade (Galium spurium; [3]): 4 (Herbicidal ratio of 70% or more and less than 90%)
- F (Digitaria ciliaris) herbicidal effect grade (Digitaria ciliaris; [3]): 5 (Herbicidal ratio of 90% or more (almost completely withered))
- H (Echinochloa crus-galli var. crus-galli) herbicidal effect grade [2, 3]: 5 (Herbicidal ratio of 90% or more (almost completely withered))
- R (Veronica persica) herbicidal effect grade (Veronica persica; [3]): 5 (Herbicidal ratio of 90% or more (almost completely withered))
- L (Apera spica-venti.) herbicidal effect grade (Apera spica-venti.; [3]): 4 (Herbicidal ratio of 70% or more and less than 90%)
- M (Abutilon theophrasti) herbicidal effect grade (Abutilon theophrasti; [3]): 5 (Herbicidal ratio of 90% or more (almost completely withered))
- K (Lolium multiflorum Lam.) herbicidal effect grade (Lolium multiflorum Lam.; [3]): 3 (Herbicidal ratio of 40% or more and less than 70%)
- J (Alopecurus myosuroides) herbicidal effect grade (Alopecurus myosuroides; [3]): 3 (Herbicidal ratio of 40% or more and less than 70%)
- G (Setaria viridis) herbicidal effect grade (Setaria viridis; [3]): 5 (Herbicidal ratio of 90% or more (almost completely withered))
- P (Stellaria media) herbicidal effect grade (Stellaria media; [3]): 5 (Herbicidal ratio of 90% or more (almost completely withered))
- I (Avena fatua) herbicidal effect grade (Avena fatua; [3]): 2 (Herbicidal ratio of 20% or more and less than 40%)
- O (Chenopodium album) herbicidal effect grade (Chenopodium album; [3]): 5 (Herbicidal ratio of 90% or more (almost completely withered))

SMILES: CC(C)Sc1nnc2c(C(=O)Nc3nnnn3C)ccc(C(F)(F)F)n12 [2-025]
- b (effect on crop grade) [1]: 5 (Herbicidal ratio of 90% or more (almost completely withered))
- N: herbicidal effect on Amaranthus retroflexus (Amaranthus retroflexus): 5 (Herbicidal ratio of 90% or more (almost completely withered))
- Q: herbicidal effect on Galium spurium (Galium spurium): 4 (Herbicidal ratio of 70% or more and less than 90%)
- F: herbicidal effect on Digitaria ciliaris (Digitaria ciliaris): 5 (Herbicidal ratio of 90% or more (almost completely withered))
- H: herbicidal effect on Echinochloa crus-galli var. crus-galli [2]: 5 (Herbicidal ratio of 90% or more (almost completely withered))
- R: herbicidal effect on Veronica persica (Veronica persica): 5 (Herbicidal ratio of 90% or more (almost completely withered))
- L: herbicidal effect on Apera spica-venti. (Apera spica-venti.): 4 (Herbicidal ratio of 70% or more and less than 90%)
- M: herbicidal effect on Abutilon theophrasti (Abutilon theophrasti): 5 (Herbicidal ratio of 90% or more (almost completely withered))
- K: herbicidal effect on Lolium multiflorum Lam. (Lolium multiflorum Lam.): 3 (Herbicidal ratio of 40% or more and less than 70%)
- J: herbicidal effect on Alopecurus myosuroides (Alopecurus myosuroides): 3 (Herbicidal ratio of 40% or more and less than 70%)
- G: herbicidal effect on Setaria viridis (Setaria viridis): 5 (Herbicidal ratio of 90% or more (almost completely withered))
- P: herbicidal effect on Stellaria media (Stellaria media): 5 (Herbicidal ratio of 90% or more (almost completely withered))
- I: herbicidal effect on Avena fatua (Avena fatua): 4 (Herbicidal ratio of 70% or more and less than 90%)
- O: herbicidal effect on Chenopodium album (Chenopodium album): 5 (Herbicidal ratio of 90% or more (almost completely withered))

SMILES: CCCc1nnc2c(C(=O)Nc3nnnn3C)ccc(C(F)(F)F)n12 [2-019]
- b (effect on crop grade) [1]: 5 (Herbicidal ratio of 90% or more (almost completely withered))
- N: herbicidal effect on Amaranthus retroflexus (Amaranthus retroflexus): 5 (Herbicidal ratio of 90% or more (almost completely withered))
- Q: herbicidal effect on Galium spurium (Galium spurium): 3 (Herbicidal ratio of 40% or more and less than 70%)
- F: herbicidal effect on Digitaria ciliaris (Digitaria ciliaris): 5 (Herbicidal ratio of 90% or more (almost completely withered))
- H: herbicidal effect on Echinochloa crus-galli var. crus-galli [2]: 5 (Herbicidal ratio of 90% or more (almost completely withered))
- R: herbicidal effect on Veronica persica (Veronica persica): 5 (Herbicidal ratio of 90% or more (almost completely withered))
- L: herbicidal effect on Apera spica-venti. (Apera spica-venti.): 4 (Herbicidal ratio of 70% or more and less than 90%)
- M: herbicidal effect on Abutilon theophrasti (Abutilon theophrasti): 5 (Herbicidal ratio of 90% or more (almost completely withered))
- K: herbicidal effect on Lolium multiflorum Lam. (Lolium multiflorum Lam.): 2 (Herbicidal ratio of 20% or more and less than 40%)
- J: herbicidal effect on Alopecurus myosuroides (Alopecurus myosuroides): 2 (Herbicidal ratio of 20% or more and less than 40%)
- G: herbicidal effect on Setaria viridis (Setaria viridis): 5 (Herbicidal ratio of 90% or more (almost completely withered))
- P: herbicidal effect on Stellaria media (Stellaria media): 5 (Herbicidal ratio of 90% or more (almost completely withered))
- I: herbicidal effect on Avena fatua (Avena fatua): 3 (Herbicidal ratio of 40% or more and less than 70%)
- O: herbicidal effect on Chenopodium album (Chenopodium album): 5 (Herbicidal ratio of 90% or more (almost completely withered))

SMILES: CC(C)[S+]([O-])c1nnc2c(C(=O)Nc3nnnn3C)ccc(C(F)(F)F)n12 (stereo not shown) [2-032]
- b (effect on crop grade) [1]: 5 (Herbicidal ratio of 90% or more (almost completely withered))
- N (Amaranthus retroflexus) herbicidal effect grade (Amaranthus retroflexus; 320 g/ha): 5 (Herbicidal ratio of 90% or more (almost completely withered))
- Q (Galium spurium) herbicidal effect grade (Galium spurium; 320 g/ha): 5 (Herbicidal ratio of 90% or more (almost completely withered))
- F (Digitaria ciliaris) herbicidal effect grade (Digitaria ciliaris; 320 g/ha): 5 (Herbicidal ratio of 90% or more (almost completely withered))
- H (Echinochloa crus-galli var. crus-galli) herbicidal effect grade ([2]; 320 g/ha): 5 (Herbicidal ratio of 90% or more (almost completely withered))
- R (Veronica persica) herbicidal effect grade (Veronica persica; 320 g/ha): 5 (Herbicidal ratio of 90% or more (almost completely withered))
- L (Apera spica-venti.) herbicidal effect grade (Apera spica-venti.; 320 g/ha): 5 (Herbicidal ratio of 90% or more (almost completely withered))
- M (Abutilon theophrasti) herbicidal effect grade (Abutilon theophrasti; 320 g/ha): 5 (Herbicidal ratio of 90% or more (almost completely withered))
- K (Lolium multiflorum Lam.) herbicidal effect grade (Lolium multiflorum Lam.; 320 g/ha): 4 (Herbicidal ratio of 70% or more and less than 90%)
- J (Alopecurus myosuroides) herbicidal effect grade (Alopecurus myosuroides; 320 g/ha): 3 (Herbicidal ratio of 40% or more and less than 70%)
- G (Setaria viridis) herbicidal effect grade (Setaria viridis; 320 g/ha): 5 (Herbicidal ratio of 90% or more (almost completely withered))
- P (Stellaria media) herbicidal effect grade (Stellaria media; 320 g/ha): 5 (Herbicidal ratio of 90% or more (almost completely withered))
- I (Avena fatua) herbicidal effect grade (Avena fatua; 320 g/ha): 5 (Herbicidal ratio of 90% or more (almost completely withered))
- O (Chenopodium album) herbicidal effect grade (Chenopodium album; 320 g/ha): 5 (Herbicidal ratio of 90% or more (almost completely withered))

SMILES: COCCN(C)c1nnc2c(C(=O)Nc3nnco3)ccc(C(F)(F)F)n12 [1-121]
- b (effect on crop grade) [1]: 3 (Herbicidal ratio of 40% or more and less than 70%)
- N (Amaranthus retroflexus) herbicidal effect grade (Amaranthus retroflexus; [3]): 5 (Herbicidal ratio of 90% or more (almost completely withered))
- Q (Galium spurium) herbicidal effect grade (Galium spurium; [3]): 3 (Herbicidal ratio of 40% or more and less than 70%)
- F (Digitaria ciliaris) herbicidal effect grade (Digitaria ciliaris; [3]): 5 (Herbicidal ratio of 90% or more (almost completely withered))
- H (Echinochloa crus-galli var. crus-galli) herbicidal effect grade [2, 3]: 5 (Herbicidal ratio of 90% or more (almost completely withered))
- R (Veronica persica) herbicidal effect grade (Veronica persica; [3]): 5 (Herbicidal ratio of 90% or more (almost completely withered))
- L (Apera spica-venti.) herbicidal effect grade (Apera spica-venti.; [3]): 3 (Herbicidal ratio of 40% or more and less than 70%)
- M (Abutilon theophrasti) herbicidal effect grade (Abutilon theophrasti; [3]): 4 (Herbicidal ratio of 70% or more and less than 90%)
- K (Lolium multiflorum Lam.) herbicidal effect grade (Lolium multiflorum Lam.; [3]): 3 (Herbicidal ratio of 40% or more and less than 70%)
- J (Alopecurus myosuroides) herbicidal effect grade (Alopecurus myosuroides; [3]): 3 (Herbicidal ratio of 40% or more and less than 70%)
- G (Setaria viridis) herbicidal effect grade (Setaria viridis; [3]): 4 (Herbicidal ratio of 70% or more and less than 90%)
- P (Stellaria media) herbicidal effect grade (Stellaria media; [3]): 5 (Herbicidal ratio of 90% or more (almost completely withered))
- I (Avena fatua) herbicidal effect grade (Avena fatua; [3]): 3 (Herbicidal ratio of 40% or more and less than 70%)
- O (Chenopodium album) herbicidal effect grade (Chenopodium album; [3]): 5 (Herbicidal ratio of 90% or more (almost completely withered))
